In US6784201B2, “Benzothiepines having activity as inhibitors of ileal bile acid transport and taurocholate uptake” (G.D. Searle & Company, priority 1994, dated 2004):
Like-named read-outs stand apart in the source and are kept apart here.

Experiments:
[1] = tested on: Rat Ileal Uptake of [14C]-Taurocholate; experiment: In vivo assay of rat ileal uptake of [14C]-taurocholate into bile (ileal loop); conditions: for activity at 100 µM: Rattus norvegicus, read-out: % of Control Transport of TC in Rat Ileum @ 0.1 mM; for EC50: rat ileal loop, read-out: TC-uptake Ileal Loop EC(50)
Description: In Vivo Assay of Compounds that Inhibit Rat Ileal Uptake of [^14C]-Taurocholate into Bile
(See “Metabolism of 3α,7β-dihydroxy-7α-methyl-5β-cholanoic acid and 3α,7β-dihydroxy-7α-methyl-5β-cholanoic acid in hamsters” in Biochimica et Biophysica Acta 833 (1985) 196-202 by Une et al.)
Male wistar rats (200-300 g) are anesthetized with inactin @100 mg/kg. Bile ducts are cannulated with a 10″ length of PE10 tubing. The small intestine is exposed and laid out on a gauze pad. A canulae (⅛″ luer lock, tapered female adapter) is inserted at 12 cm from the junction of the small intestine and the cecum. A slit is cut at 4 cm from this same junction (utilizing a 8 cm length of ileum). 20 ml of warm Dulbecco's phosphate buffered saline, pH 6.5 (PBS) is used to flush out the intestine segment. The distal opening is cannulated with a 20 cm length of silicone tubing (0.02″ I.D.×0.037″ O.D.). The proximal cannulae is hooked up to a peristaltic pump and the intestine is washed for 20 min with warm PBS at 0.25 ml/min. Temperature of the gut segment is monitored continuously. At the start of the experiment, 2.0 ml of control sample ([^14C]-taurocholate @ 0.05 mi/ml with 5 mM cold taurocholate) is loaded into the gut segment with a 3 ml syringe and bile sample collection is begun. Control sample is infused at a rate of 0.25 ml/min for 21 min. Bile samples fractions are collected every 3 minute for the first 27 minutes of the procedure. After the 21 min of sample infusion, the ileal loop is washed out with 20 ml of warm PBS (using a 30 ml syringe), and then the loop is washed out for 21 min with warm PBS at 0.25 ml/min. A second perfusion is initiated as described above but this with test compound being administered as well (21 min administration followed by 21 min of wash out) and bile sampled every 3 min for the first 27 min. If necessary, a third perfusion is performed as above that typically contains the control sample.

[2] = biological target: T1, human IBAT (Homo sapiens, UniProt Q12908); experiment: In vitro assay of IBAT-mediated uptake of [14C]-taurocholate (TC) in H14 cells; format: cell-based
T1 construct: expressed in transfected cells; host or cells: Baby hamster kidney (BHK) cells, clone H14
T1 sequence (Q12908 1-348): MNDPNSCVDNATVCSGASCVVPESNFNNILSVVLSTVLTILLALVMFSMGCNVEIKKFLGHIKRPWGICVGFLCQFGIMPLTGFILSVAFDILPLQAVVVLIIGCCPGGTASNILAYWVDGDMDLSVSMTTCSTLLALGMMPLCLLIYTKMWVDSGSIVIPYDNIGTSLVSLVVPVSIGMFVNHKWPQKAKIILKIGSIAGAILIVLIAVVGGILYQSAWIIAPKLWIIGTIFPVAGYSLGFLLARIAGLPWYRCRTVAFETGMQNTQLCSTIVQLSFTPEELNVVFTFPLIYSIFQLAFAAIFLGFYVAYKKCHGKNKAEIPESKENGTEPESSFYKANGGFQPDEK
Summary of the method: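 BHK cells stably expressing human IBAT (H14) were incubated 2 h at 37° C with compound and 3 μM final [14C]-taurocholate in DMEM (4.5 g/L glucose) plus 0.2% fatty acid-free BSA. After cold PBS washes, cell-associated radioactivity was measured by scintillation counting.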

[3] = tested on: H14 cells; experiment: In vitro assay of uptake of [14C]-alanine; format: cell-based, hamster; conditions: Mesocricetus auratus
Description: Baby hamster kidney cells (BHK) transfected with the cDNA of human IBAT (H14 cells) are seeded at 60,000 cells/well in 96 well Top-Count tissue culture plates for assays run within in 24 hours of seeding, 30,000 cells/well for assays run within 48 hours, and 10,000 cells/well for assays run within 72 hours.
On the day of assay, the cell monolayer is gently washed once with 100 μl assay buffer (Dulbecco's Modified Eagle's medium with 4.5 g/L glucose+0.2% (w/v) fatty acid free bovine serum albumin-(FAF)BSA). To each well 50 μl of a two-fold concentrate of test compound in assay buffer is added along with 50 μl of 6 μM [^14C]-taurocholate in assay buffer (final concentration of 3 μM [^14C]-taurocholate). The cell culture plates are incubated 2 hours at 37° C. prior to gently washing each well twice with 100 μl 4° C. Dulbecco's phosphate-buffered saline (PBS) containing 0.2% (w/v) (FAF)BSA. The wells are then gently washed once with 100 μl 4° C. PBS without (FAF)BSA. To each 200 μl of liquid scintillation counting fluid is added, the plates are heat sealed and shaken for 30 minutes at room temperature prior to measuring the amount of radioactivity in each well on a Packard Top-Count instrument.
In Vitro Assay of Compounds that Inhibit Uptake of [^14C3-Alanine
The alanine uptake assay is performed in an identical fashion to the taurocholate assay, with the exception that labeled alanine is substituted for the labeled taurocholate.

[4] = biological target: ACAT; experiment: Acyl-CoA; cholesterol acyl transferase (ACAT), hamster liver microsomes; format: biochemical; conditions: read-out: ACAT (liver) IC(50)
Description: Acyl-CoA; Cholesterol Acyl Transferase (ACAT)
Hamster liver and rat intestinal microsomes were prepared from tissue as described previously (Reference: (1980) J. Biol. Chem. 255, 9098) and used as a source of ACAT enzyme. The assay consisted of a 2.0 ml incubation containing 24 μM Oleoyl-CoA (0.05 μCi) in a 50 mM sodium phosphate, 2 mM DTT ph 7.4 buffer containing 0.25% BSA and 200 μg of microsomal protein. The assay was initiated by the addition of oleoyl-CoA. The reaction went for 5 min at 37° C. and was terminated by the addition of 8.0 ml of chloroform/methanol (2:1). […] The chloroform phase was taken to dryness and then spotted on a silica gel 60 TLC plate and developed in hexane/ethyl ether (9:1). The amount of cholesterol ester formed was determined by measuring the amount of radioactivity incorporated into the cholesterol oleate spot on the TLC plate with a Packard instaimager.

[5] = tested on: Rabbit Ileal brush border membranes; experiment: [3H]taurocholate uptake in rabbit brush border membrane vesicles (BBMV); format: biochemical; conditions: read-out: TC-uptake (BBMV) IC(50)
Description: [^3H]Taurocholate Uptake in Rabbit Brush Border Membrane Vesicles (BBMV)
Rabbit Ileal brush border membranes were prepared from frozen iheal mucosa by the calcium precipitation method describe by Malathi et al. (Reference: (1979) Biochimica Biophysica Acta, 554, 259). The method for measuring taurocholate was essentially as described by Kramer et al. (Reference: (1992) Biochimica Biophysica Acta, 1111, 93) except the assay volume was 200 μl instead of 100 μl.

[6] = H14 cells, Table 5, read-out: IC50 uM (In vitro Taurocholate Cell Uptake)
[7] = Table 6, read-out: TC-uptake (H14 cells) IC(50)

EC50 [1]	IC50 [2, 6]	IC50 [2, 7]	IC50 [4]	IC50 [5]	Compound	activity at 100 µM [1]	inhibition at 5 µM ([3]; 5 μM)	inhibition at 200 µM ([3]; 200 μM)
12000 nM	0.3 µM	0.3 µM	15000 nM	2000 nM	CCCC[C@]1(CC)CS(=O)(=O)c2ccc(NO)cc2[C@@H](c2ccccc2)[C@H]1O [Example 38, (3α,4β,5β) 3-Butyl-3-ethyl-4-hydroxy-7-hydroxyamino-5-phenyl-2,3,4,5-tetrahydrobenzothiepine-1,1-dioxide]	20.6%	11%	–
12000 nM	0.15 µM	0.1 µM	6000 nM	–	CCCC[C@]1(CC)CS(=O)(=O)c2ccc(OC)cc2[C@@H](c2ccccc2)[C@H]1O [Example 49, (3α,4β,5β) 3-Butyl-3-ethyl-4-hydroxy-7-methoxy-5-phenyl-2,3,4,5-tetrahydrobenzothiepine-1,1-dioxide]	21.2%	–	21%
